Results taken from paper PMC4129439 (eLife, 2014).
Values joined by “and” are separate entries in the source; they are usually repeats but may differ in a detail not shown here. Equal entries are not always repeated. Where two headings read alike, the source gives them in different places.

Legend:
[1] = molecular target: T1, recombinant human SAA1 (hSAA1) (Homo sapiens, UniProt P0DJI8, D78N/H89R); test: Fluorometric retinoid binding assay, hSAA1; conditions: for Kd: PBS, 0.5 μM protein
T1 construct: corresponding to human apo-SAA1α except for the presence of an N-terminal methionine; purchased PeproTech (Rocky Hill, NJ)
T1 sequence (P0DJI8 19-122 D78N/H89R): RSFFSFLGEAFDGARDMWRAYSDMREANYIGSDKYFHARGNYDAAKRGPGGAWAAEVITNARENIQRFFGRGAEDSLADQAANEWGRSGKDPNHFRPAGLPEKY
Protocol: (§1) Retinoic acid lacks intrinsic fluorescence but can quench inherent protein fluorescence due to energy transfer from tryptophan residues ([Cogan et al., 1976]). We therefore measured retinoic acid binding using a modified fluorescence assay that monitored quenching of protein fluorescence (Figure 2C).
(§2) Steady state fluorescence was measured using a QuantaMaster 40 spectrofluorometer (Photon Technology International, Edison, NJ) and FelixGX software program. […] For retinoic acid and other retinoids, samples were excited at 296 nm and tryptophan quenching was monitored by emission at 334 nm. Experiments on mSAA1 and mSAA3 were done in 25 mM Tris pH 8.0, 100 mM NaCl, and 4 mM decyl maltopyranoside (DM). Experiments with hSAA1, human ApoA1, and human transferrin were conducted in PBS. […] All assays were done using a protein concentration of 0.5 μM.

[2] = molecular target: human retinol binding protein 4 (hRBP4) (Homo sapiens, UniProt P02753); test: Fluorescence binding assay, hRBP4; conditions: fluorescence quenching assay as in Figure 2
mouse SAA1 (mSAA1) = molecular target: T2, mouse SAA1 (mSAA1) (Mus musculus, UniProt P05366); test: Fluorometric retinoid binding assay, mSAA1; conditions: for binding (in words): tryptophan fluorescence quenching, excitation 296 nm, emission 334 nm
T2 construct: hexa-histidine tag followed by thrombin cleavage site (N, cleaved yes); made in house; host or cells: Escherichia coli BL21-CodonPlus (DE3)-RILP
T2 sequence (P05366 20-122): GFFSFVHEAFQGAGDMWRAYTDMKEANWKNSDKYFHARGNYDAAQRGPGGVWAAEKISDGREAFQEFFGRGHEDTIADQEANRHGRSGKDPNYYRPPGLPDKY
Protocol: as §1, §2

[3] = tested on: SAA1 and 2 expression in HepG2 cells; test: SAA expression in HepG2 cells by Q-PCR; type: cell-based, human
Description: (§3) Figure 1. SAA expression requires dietary vitamin A. (A) Mice were maintained on a normal (Vit. A+) diet or a vitamin A-deficient (Vit. A−) diet as in Figure 1—figure supplement 1. N = 3–5 mice per condition. (B) Ileal sections were stained with anti-SAA antibody (‘Materials and methods’) and anti-rabbit IgG-Cy3 (red), and counterstained with DAPI (blue). Scale bar = 50 µm. (C) Q-PCR determination of Saa expression levels in livers of mice on a normal or vitamin A-deficient diet. N = 5 mice/condition. (D) Liver sections were stained with anti-SAA antibody and anti-rabbit IgG-Cy3 (red), and counterstained with DAPI (blue). Scale bars = 50 µm. (E and F) Analysis of SAA expression in HepG2 cells. […] SAA expression was determined by Q-PCR. N = 3 independent experiments. Mean ± SEM is plotted. nd, not detected. *p < 0.05; **p < 0.01; ***p < 0.001. p values were determined by two-tailed Student's t test. DOI: http://dx.doi.org/10.7554/eLife.03206.004 Figure 1—figure supplement 1. […] Saa transcript abundance was determined by Q-PCR. […] Saa transcript abundance was determined by Q-PCR. […] Mean ± SEM is plotted. *p < 0.05, **p < 0.01. p values were determined by the Mann–Whitney test in (A) and two-tailed Student's t test in (B). […]

[4] = tested on: liver Saa1 and Saa2 expression; test: In vivo retinoic acid reconstitution, liver Saa expression by Q-PCR; parameters: species or system mouse; conditions: vitamin A-depleted mice, intraperitoneal, daily for three days
Description: as §3

mouse SAA3 (mSAA3) = molecular target: T3, mouse SAA3 (mSAA3) (Mus musculus, UniProt P04918); test: Fluorometric retinoid binding assay, mSAA3
T3 construct: hexa-histidine tag followed by thrombin cleavage site (N, cleaved yes); made in house; host or cells: Escherichia coli BL21-CodonPlus (DE3)-RILP
T3 sequence (P04918 19-122): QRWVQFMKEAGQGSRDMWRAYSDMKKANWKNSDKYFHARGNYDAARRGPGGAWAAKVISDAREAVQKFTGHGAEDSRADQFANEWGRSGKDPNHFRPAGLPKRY
Protocol: as §1, §2

[5] = tested on: intestinal Saa1 and Saa2 expression; test: Saa expression in small intestinal explants by Q-PCR; type: cell-based, mouse; conditions: 1 µM retinol in 0.1% DMSO, ileum explants, 6 hr
mSAA3-W71A = molecular target: T4, mSAA3-W71A (Mus musculus, UniProt P04918, W71A); test: Retinol binding assay, mSAA3-W71A mutant
T4 construct: hexa-histidine tag followed by thrombin cleavage site (N, cleaved yes); made in house; host or cells: Escherichia coli BL21-CodonPlus (DE3)-RILP
T4 sequence (P04918 19-122 W71A): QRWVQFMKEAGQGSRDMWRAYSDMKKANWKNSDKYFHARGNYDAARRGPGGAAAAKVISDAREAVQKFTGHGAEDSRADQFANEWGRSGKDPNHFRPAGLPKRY
Protocol: The mSAA3-W71A mutant was generated using the QuickChange II site-directed mutagenesis kit (Agilent Technologies, Santa Clara, CA).
as §2

hSAA1, mSAA1, and mSAA3 = test: Cholesterol competition of retinol binding to SAAs; conditions: 10 μM cholesterol, saturating retinol, fluorescence quenching at 334 nm
Description: Figure 2. […] Plots are representative of five independent experiments. (C) Retinoic acid lacks intrinsic fluorescence, but can quench intrinsic protein fluorescence due to energy transfer from tryptophan residues ([Cogan et al., 1976]). All-trans-retinoic acid was titrated into mSAA3 and fluorescence quenching was monitored following excitation at 296 nm. The chemical structure of retinoic acid is shown. (D) All-trans-retinoic acid was titrated into hSAA1, mSAA1, mSAA3, hTfr, and ApoA1. Fluorescence emission was monitored at 334 nm with excitation at 296 nm as in (C). Plots are representative of three independent experiments. […] Additional ligand binding measurements are provided in Figure 2—figure supplements 1 and 2. DOI: http://dx.doi.org/10.7554/eLife.03206.007 Figure 2—figure supplement 1. […] DOI: http://dx.doi.org/10.7554/eLife.03206.008 [drawing 3] Figure 2—figure supplement 2. Additional ligand binding studies on human and mouse SAAs. […] Plots are representative of three independent experiments.
Steady state fluorescence was measured using a QuantaMaster 40 spectrofluorometer (Photon Technology International, Edison, NJ) and FelixGX software program. […] For retinoic acid and other retinoids, samples were excited at 296 nm and tryptophan quenching was monitored by emission at 334 nm. […]

[6] = molecular target: the molecule itself; test: crystal structure; selenomethionyl mSAA3, space group P6(2), two subunits in the asymmetric unit, SAD phasing, 2 Å; 75-80% MPD, 0.1 M sodium acetate pH 4.5, 20°C; quaternary structure by PDBePISA
[7] = tryptophan fluorescence quenching, excitation 296 nm, emission 334 nm
[8] = tryptophan fluorescence quenching, excitation 296 nm, emission 334 nm, 0.5 μM protein

## CC1=C(/C=C/C(C)=C/C=C/C(C)=C/C(=O)O)C(C)(C)CCC1 [retinoic acid]
[1]; [7]
  Kd: 268 nM
[2]
  Kd: 139 ± 40 nM
Mouse SAA1 (mSAA1)
  binding (in words): weak binding
[3]; 100 nM retinoic acid in the presence of IL-1β and IL-6, retinoid-free medium
  expression of SAA1 and 2: enhanced expression
[4]
  expression of liver Saa1 and Saa2: elevated expression
Mouse SAA3 (mSAA3); [8]
  Kd: 224 nM

## CC1=C(/C=C/C(C)=C/C=C/C(C)=C/C=C/C=C(C)/C=C/C=C(C)/C=C/C2=C(C)CCCC2(C)C)C(C)(C)CCC1 [β-carotene]
[1]; [7]
  Kd: 347 nM and 497 nM
Mouse SAA1 (mSAA1)
  binding (in words): weak binding
Mouse SAA3 (mSAA3); [8]
  Kd: 159 nM

## CCCCCCCCCCCCCCCC(=O)OC/C=C(C)/C=C/C=C(C)/C=C/C1=C(C)CCCC1(C)C [retinyl palmitate]
[1]; [7]
  binding (in words): bound weakly
Mouse SAA1 (mSAA1)
  binding (in words): bound weakly
Mouse SAA3 (mSAA3); [7]
  binding (in words): bound weakly

## CC(=O)OC/C=C(C)/C=C/C=C(C)/C=C/C1=C(C)CCCC1(C)C [retinyl acetate]
[1]; [7]
  Kd: 497 nM and 347 nM
Mouse SAA1 (mSAA1)
  binding (in words): weak binding

## CC1=C(/C=C/C(C)=C/C=C/C(C)=C/CO)C(C)(C)CCC1 [retinol]
[1]; all-trans-retinol titration, retinol fluorescence, excitation 348 nm, emission 460 nm
  Kd: 259 nM
[5]
  expression of intestinal Saa1 and Saa2: elevated expression
Mouse SAA1 (mSAA1)
  Kd: 169 nM
[3]; 1 μM retinol in the presence of IL-1β and IL-6, retinoid-free medium
  expression of SAA1 and 2: enhanced expression
mSAA3-W71A
  Kd: 496 ± 127 nM
Mouse SAA3 (mSAA3)
  Kd: 145 nM

## CC(C)CCC[C@@H](C)[C@H]1CC[C@H]2[C@@H]3CC=C4C[C@@H](O)CC[C@]4(C)[C@H]3CC[C@]12C [cholesterol]
hSAA1, mSAA1, and mSAA3
  competitive inhibition of retinol binding: unable to competitively inhibit retinol binding

B1: mouse serum amyloid A3 (mSAA3) (natural protein, UniProt P04918 19-122, looked up)
chain: QRWVQFMKEAGQGSRDMWRAYSDMKKANWKNSDKYFHARGNYDAARRGPGGAWAAKVISDAREAVQKFTGHGAEDSRADQFANEWGRSGKDPNHFRPAGLPKRY
notes: cloned into pET28(a)+ between NdeI and BamHI; monomer is 12.2 kDa; The crystal used for the structure was selenomethionyl-derivatised (grown in defined media with selenomethionine); SEC and cross-linking used the native protein; A few vector residues probably remain at the N-terminus after thrombin cleavage (surmise); also called mouse SAA3; not shown: His6, N-terminal, cleaved
[6]
  stoichiometry N: 4
